Read-outs that look alike come from different tables or passages of the source.
System: PABPC1 PABC
Assay type: binding, human
Conditions: DMS-BM library, bait PABPC1 PABC, row aa = residue at this position; for DMS-derived PSSM value, position K9: K = wild type; for DMS-derived PSSM value (averaged), position T1 / DMS-derived PSSM value, position T1 / DMS-derived PSSM value, position T3: T = wild type; for DMS-derived PSSM value, position E10 / DMS-derived PSSM value, position E8: E = wild type
[1] = prey ATXN2, TLNPNAKEFNPRSF(averaged) over the two overlapping peptides, N = wild type
[2] = prey ATXN2, TLNPNAKEFNPRSF(averaged) over the two overlapping peptides, P = wild type
[3] = prey ATXN2, peptide KSTLNPNAKEFNPRSF, N = wild type
[4] = prey ATXN2, peptide TLNPNAKEFNPRSFSQ, N = wild type
[5] = prey ATXN2, peptide TLNPNAKEFNPRSFSQ, F = wild type
[6] = prey ATXN2, peptide KSTLNPNAKEFNPRSF
[7] = prey ATXN2, TLNPNAKEFNPRSF(averaged) over the two overlapping peptides
[8] = prey ATXN2, peptide KSTLNPNAKEFNPRSF, R = wild type
[9] = prey ATXN2, peptide TLNPNAKEFNPRSFSQ, R = wild type
[10] = prey ATXN2, peptide TLNPNAKEFNPRSFSQ, P = wild type
[11] = prey ATXN2, peptide KSTLNPNAKEFNPRSF, F = wild type
[12] = prey ATXN2, TLNPNAKEFNPRSF(averaged) over the two overlapping peptides, F = wild type
[13] = prey ATXN2, peptide TLNPNAKEFNPRSFSQ
[14] = prey ATXN2, peptide KSTLNPNAKEFNPRSF, S = wild type
[15] = prey ATXN2, peptide KSTLNPNAKEFNPRSF, L = wild type
[16] = prey ATXN2, TLNPNAKEFNPRSF(averaged) over the two overlapping peptides, S = wild type
[17] = prey ATXN2, TLNPNAKEFNPRSF(averaged) over the two overlapping peptides, L = wild type

TLNPNAKEFNPRSF(averaged) N3W (TLWPNAKEFNPRSF)
DMS-derived PSSM value (averaged), position N3 [1]: 0

TLNPNAKEFNPRSF(averaged) P11N (TLNPNAKEFNNRSF)
DMS-derived PSSM value (averaged), position P11 [2]: 0.02352

KSTLNPNAKEFNPRSF N5Y (KSTLYPNAKEFNPRSF)
DMS-derived PSSM value, position N5 [3]: 0.01612

TLNPNAKEFNPRSFSQ N5P (TLNPPAKEFNPRSFSQ)
DMS-derived PSSM value, position N5 [4]: 8.238e-5

TLNPNAKEFNPRSFSQ N3W (TLWPNAKEFNPRSFSQ)
DMS-derived PSSM value, position N3 [4]: 0

TLNPNAKEFNPRSFSQ F9G (TLNPNAKEGNPRSFSQ)
DMS-derived PSSM value, position F9 [5]: 0

KSTLNPNAKEFNPRSF K9Y (KSTLNPNAYEFNPRSF)
DMS-derived PSSM value, position K9 [6]: 0.02328

TLNPNAKEFNPRSFSQ L2Q (TQNPNAKEFNPRSFSQ)
DMS-derived PSSM value, position L2 (prey ATXN2, peptide TLNPNAKEFNPRSFSQ, L = wild type): 0

TLNPNAKEFNPRSFSQ F14V (TLNPNAKEFNPRSVSQ)
DMS-derived PSSM value, position F14 [5]: 0.06499

TLNPNAKEFNPRSFSQ F14S (TLNPNAKEFNPRSSSQ)
DMS-derived PSSM value, position F14 [5]: 0.004424

TLNPNAKEFNPRSFSQ N3F (TLFPNAKEFNPRSFSQ)
DMS-derived PSSM value, position N3 [4]: 0

TLNPNAKEFNPRSF(averaged) T1S (SLNPNAKEFNPRSF)
DMS-derived PSSM value (averaged), position T1 [7]: 0.002379

TLNPNAKEFNPRSF(averaged) T1P (PLNPNAKEFNPRSF)
DMS-derived PSSM value (averaged), position T1 [7]: 0.02725

KSTLNPNAKEFNPRSF R14I (KSTLNPNAKEFNPISF)
DMS-derived PSSM value, position R14 [8]: 0.04837

TLNPNAKEFNPRSFSQ R12Q (TLNPNAKEFNPQSFSQ)
DMS-derived PSSM value, position R12 [9]: 0.0158

TLNPNAKEFNPRSFSQ P4N (TLNNNAKEFNPRSFSQ)
DMS-derived PSSM value, position P4 [10]: 0.001049

KSTLNPNAKEFNPRSF F11I (KSTLNPNAKEINPRSF)
DMS-derived PSSM value, position F11 [11]: 0

TLNPNAKEFNPRSFSQ F9P (TLNPNAKEPNPRSFSQ)
DMS-derived PSSM value, position F9 [5]: 0

TLNPNAKEFNPRSF(averaged) F14A (TLNPNAKEFNPRSA)
DMS-derived PSSM value (averaged), position F14 [12]: 0.04899

TLNPNAKEFNPRSF(averaged) N10R (TLNPNAKEFRPRSF)
DMS-derived PSSM value (averaged), position N10 [1]: 0.02307

TLNPNAKEFNPRSFSQ F9V (TLNPNAKEVNPRSFSQ)
DMS-derived PSSM value, position F9 [5]: 0.0008789

TLNPNAKEFNPRSFSQ N10T (TLNPNAKEFTPRSFSQ)
DMS-derived PSSM value, position N10 [4]: 0.03853

KSTLNPNAKEFNPRSF E10N (KSTLNPNAKNFNPRSF)
DMS-derived PSSM value, position E10 [6]: 0.01939

TLNPNAKEFNPRSFSQ R12L (TLNPNAKEFNPLSFSQ)
DMS-derived PSSM value, position R12 [9]: 0.01731

TLNPNAKEFNPRSFSQ T1P (PLNPNAKEFNPRSFSQ)
DMS-derived PSSM value, position T1 [13]: 0.04902

KSTLNPNAKEFNPRSF T3W (KSWLNPNAKEFNPRSF)
DMS-derived PSSM value, position T3 [6]: 0.01564

KSTLNPNAKEFNPRSF S15K (KSTLNPNAKEFNPRKF)
DMS-derived PSSM value, position S15 [14]: 0

KSTLNPNAKEFNPRSF L4G (KSTGNPNAKEFNPRSF)
DMS-derived PSSM value, position L4 [15]: 0

TLNPNAKEFNPRSFSQ E8H (TLNPNAKHFNPRSFSQ)
DMS-derived PSSM value, position E8 [13]: 0.0374

TLNPNAKEFNPRSF(averaged) A6Q (TLNPNQKEFNPRSF)
DMS-derived PSSM value (averaged), position A6 (prey ATXN2, TLNPNAKEFNPRSF(averaged) over the two overlapping peptides, A = wild type): 0

TLNPNAKEFNPRSF(averaged) S13E (TLNPNAKEFNPREF)
DMS-derived PSSM value (averaged), position S13 [16]: 0.01358

KSTLNPNAKEFNPRSF F16M (KSTLNPNAKEFNPRSM)
DMS-derived PSSM value, position F16 [11]: 0.02916

TLNPNAKEFNPRSF(averaged) L2D (TDNPNAKEFNPRSF)
DMS-derived PSSM value (averaged), position L2 [17]: 0

KSTLNPNAKEFNPRSF R14E (KSTLNPNAKEFNPESF)
DMS-derived PSSM value, position R14 [8]: 0.01157

KSTLNPNAKEFNPRSF F16K (KSTLNPNAKEFNPRSK)
DMS-derived PSSM value, position F16 [11]: 0.01965

TLNPNAKEFNPRSFSQ R12E (TLNPNAKEFNPESFSQ)
DMS-derived PSSM value, position R12 [9]: 0.01629

TLNPNAKEFNPRSF(averaged) T1R (RLNPNAKEFNPRSF)
DMS-derived PSSM value (averaged), position T1 [7]: 0.04124

KSTLNPNAKEFNPRSF L4S (KSTSNPNAKEFNPRSF)
DMS-derived PSSM value, position L4 [15]: 0

TLNPNAKEFNPRSFSQ A6P (TLNPNPKEFNPRSFSQ)
DMS-derived PSSM value, position A6 (prey ATXN2, peptide TLNPNAKEFNPRSFSQ, A = wild type): 0

TLNPNAKEFNPRSF(averaged) F9G (TLNPNAKEGNPRSF)
DMS-derived PSSM value (averaged), position F9 [12]: 0

TLNPNAKEFNPRSFSQ P4G (TLNGNAKEFNPRSFSQ)
DMS-derived PSSM value, position P4 [10]: 0.0005247

KSTLNPNAKEFNPRSF R14V (KSTLNPNAKEFNPVSF)
DMS-derived PSSM value, position R14 [8]: 0.03521

KSTLNPNAKEFNPRSF R14F (KSTLNPNAKEFNPFSF)
DMS-derived PSSM value, position R14 [8]: 0.03238

TLNPNAKEFNPRSFSQ S13H (TLNPNAKEFNPRHFSQ)
DMS-derived PSSM value, position S13 (prey ATXN2, peptide TLNPNAKEFNPRSFSQ, S = wild type): 0.01388

TLNPNAKEFNPRSF(averaged) N5H (TLNPHAKEFNPRSF)
DMS-derived PSSM value (averaged), position N5 [1]: 0.03609

TLNPNAKEFNPRSF(averaged) F14M (TLNPNAKEFNPRSM)
DMS-derived PSSM value (averaged), position F14 [12]: 0.1425

TLNPNAKEFNPRSFSQ E8R (TLNPNAKRFNPRSFSQ)
DMS-derived PSSM value, position E8 [13]: 0

KSTLNPNAKEFNPRSF R14L (KSTLNPNAKEFNPLSF)
DMS-derived PSSM value, position R14 [8]: 0.02501

KSTLNPNAKEFNPRSF K9T (KSTLNPNATEFNPRSF)
DMS-derived PSSM value, position K9 [6]: 0.02286

TLNPNAKEFNPRSFSQ N10I (TLNPNAKEFIPRSFSQ)
DMS-derived PSSM value, position N10 [4]: 0.00743

TLNPNAKEFNPRSF(averaged) P11H (TLNPNAKEFNHRSF)
DMS-derived PSSM value (averaged), position P11 [2]: 0.07852

KSTLNPNAKEFNPRSF L4H (KSTHNPNAKEFNPRSF)
DMS-derived PSSM value, position L4 [15]: 0

KSTLNPNAKEFNPRSF T3D (KSDLNPNAKEFNPRSF)
DMS-derived PSSM value, position T3 [6]: 0.0007076

KSTLNPNAKEFNPRSF N12G (KSTLNPNAKEFGPRSF)
DMS-derived PSSM value, position N12 [3]: 0.02172

KSTLNPNAKEFNPRSF S15G (KSTLNPNAKEFNPRGF)
DMS-derived PSSM value, position S15 [14]: 0

KSTLNPNAKEFNPRSF L4Q (KSTQNPNAKEFNPRSF)
DMS-derived PSSM value, position L4 [15]: 0

TLNPNAKEFNPRSFSQ N10K (TLNPNAKEFKPRSFSQ)
DMS-derived PSSM value, position N10 [4]: 0.01052

TLNPNAKEFNPRSF(averaged) F14I (TLNPNAKEFNPRSI)
DMS-derived PSSM value (averaged), position F14 [12]: 0.0374

TLNPNAKEFNPRSFSQ N10D (TLNPNAKEFDPRSFSQ)
DMS-derived PSSM value, position N10 [4]: 0.08868

KSTLNPNAKEFNPRSF E10V (KSTLNPNAKVFNPRSF)
DMS-derived PSSM value, position E10 [6]: 0.1837

TLNPNAKEFNPRSF(averaged) R12M (TLNPNAKEFNPMSF)
DMS-derived PSSM value (averaged), position R12 (prey ATXN2, TLNPNAKEFNPRSF(averaged) over the two overlapping peptides, R = wild type): 0.02329

TLNPNAKEFNPRSFSQ F9I (TLNPNAKEINPRSFSQ)
DMS-derived PSSM value, position F9 [5]: 0

KSTLNPNAKEFNPRSF E10I (KSTLNPNAKIFNPRSF)
DMS-derived PSSM value, position E10 [6]: 0

TLNPNAKEFNPRSF(averaged) L2F (TFNPNAKEFNPRSF)
DMS-derived PSSM value (averaged), position L2 [17]: 0.05162

TLNPNAKEFNPRSF(averaged) S13Y (TLNPNAKEFNPRYF)
DMS-derived PSSM value (averaged), position S13 [16]: 0.0362

TLNPNAKEFNPRSF(averaged) F14P (TLNPNAKEFNPRSP)
DMS-derived PSSM value (averaged), position F14 [12]: 0.03538

TLNPNAKEFNPRSFSQ T1W (WLNPNAKEFNPRSFSQ)
DMS-derived PSSM value, position T1 [13]: 0.001527

TLNPNAKEFNPRSF(averaged) L2Q (TQNPNAKEFNPRSF)
DMS-derived PSSM value (averaged), position L2 [17]: 0

KSTLNPNAKEFNPRSF N7P (KSTLNPPAKEFNPRSF)
DMS-derived PSSM value, position N7 [3]: 0

TLNPNAKEFNPRSFSQ P11H (TLNPNAKEFNHRSFSQ)
DMS-derived PSSM value, position P11 [10]: 0.157

From article PMC12102759 (Protein Science : A Publication of the Protein Society, 2025)
